Test results published in PMC6813354, “Bases of Bacterial Sodium Channel Selectivity Among Organic Cations” (Scientific Reports, 2019).

Target: T1, NaChBac (Halalkalibacterium halodurans, UniProt Q9KCR8)
T1 construct: gene BH1501; NaChBac in pTracer-CMV2, transiently expressed in tsA 201 cells; homotetramer
T1 sequence (Q9KCR8 1-274): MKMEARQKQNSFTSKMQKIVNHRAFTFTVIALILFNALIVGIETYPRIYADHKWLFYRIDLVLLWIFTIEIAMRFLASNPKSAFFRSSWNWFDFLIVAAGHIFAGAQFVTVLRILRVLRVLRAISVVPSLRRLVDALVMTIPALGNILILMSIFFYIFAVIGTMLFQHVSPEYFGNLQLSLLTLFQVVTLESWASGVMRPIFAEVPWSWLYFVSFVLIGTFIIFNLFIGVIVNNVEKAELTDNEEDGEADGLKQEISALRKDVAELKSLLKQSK
Test: whole-cell patch clamp
Assay type: cell-based
Settings: 142.5 mM external replacing Na+; pH 7.4; room temperature; weak pore block of Na+ current

Row | Compound | whole-cell patch clamp
1 | CN [MA^+, methylammonium] | MA^+ reduces the sodium current amplitude more effectively than TMA^+ in WT and E191D mutant
2 | C[N+](C)(C)C [TMA^+, tetramethylammonium] | different blocking effects of TMA^+ (purple) and MA^+ (orange), relative to Na^+ controls
